Converted amounts (≈) assume the structure as drawn. The source made the active and inactive calls. The rule behind the calls is not given here.
How the values were obtained:
[1] = test system: Escherichia coli; assay: Induction of membrane permeabilization in Escherichia coli ATCC 25922 assessed as loss of pili/flagella at MIC after 1 hr by atomic force microscopic method; format: functional
[2] = test system: Escherichia coli; assay: Induction of membrane permeabilization in Escherichia coli ATCC 25922 assessed as loss of pili/flagella at MBC after 1 hr by atomic force microscopic method; format: functional
[3] = test system: Escherichia coli; assay: Bactericidal activity against Escherichia coli ATCC 25922 after 18 hrs by microdilution method; format: functional; details: ATCC 25922, 18 h, read-out: MBC=>99.9
[4] = Cytotoxicity against human peripheral blood leukocytes assessed as cell viability at 0.18 uM after 24 hrs by acridine orange/ethidium bromide staining based fluorescence microscopic method relative to control; design: species or system Leukocyte; details: read-out: Activity

With `CC[C@H](C)[C@H](NC(=O)CN)C(=O)NCC(=O)N[C@@H](C)C(=O)N[C@H](C(=O)N[C@@H](CC(C)C)C(=O)N[C@@H](CCCCN)C(=O)N[C@H](C(=O)N[C@@H](CC(C)C)C(=O)N[C@H](C(=O)N[C@H](C(=O)NCC(=O)N[C@@H](CC(C)C)C(=O)N1CCC[C@H]1C(=O)N[C@@H](C)C(=O)N[C@@H](CC(C)C)C(=O)N[C@H](C(=O)N[C@@H](CO)C(=O)N[C@@H](Cc1c[nH]c2ccccc12)C(=O)N[C@H](C(=O)N[C@@H](CCCCN)C(=O)N[C@@H](CCCNC(=N)N)C(=O)N[C@@H](CCCCN)C(=O)N[C@@H](CCCNC(=N)N)C(=O)N[C@@H](CCC(N)=O)C(=O)N[C@@H](CCC(N)=O)C(N)=O)[C@@H](C)CC)[C@@H](C)CC)[C@@H](C)O)[C@@H](C)O)C(C)C)C(C)C` [MELITTIN] the Activity [1] was “Active”, the Activity [2] was “Active” and the MBC [3] was 20 µM (≈ 56.9 µg/mL). It also gave a viability at 24 h, 0.18 µM [4] of 60%.

From ChEMBL document CHEMBL4020848, “Antibacterial Activity Affected by the Conformational Flexibility in Glycine-Lysine Based α-Helical Antimicrobial Peptides” (J Med Chem, 2018)
